Laboratory results published in the supplement of paper PMC6965134.
± gives the standard deviation of the averaged measurements.

Assay: TIMS collisional cross section (CCS, N2) of the lipid ion; higher = larger ion cross section
Conditions: ionization mode: negative, one isomer drawn
Description: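 Lipid extracts of human plasma (NIST SRM 1950), mouse liver or HeLa cells were separated by nanoflow C18 LC (30 min gradient) and analysed by TIMS-PASEF on a timsTOF Pro. Ion mobility was calibrated with the Agilent tuning mix (negative mode ions) and converted to collisional cross sections (Mason–Schamp, N2).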

[1] = sample type: Human plasma, ion (formula + adduct): [C46H82NO8P+HCOO] 1-
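Further: lipids from MTBE extraction, five replicate injections per sample, 100 ms TIMS ramp spanning 0.6–1.95 Vs/cm², lipid identity assigned from PASEF MS/MS spectra.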

CC/C=C\C/C=C\C/C=C\C/C=C\C/C=C\C/C=C\CCC(=O)OC(COC(=O)CCCCCCCCCCCCCCC)COP(=O)(O)OCCN (configuration not stated) [PE 16:0@_22:6]
TIMS collisional cross section (sample type: Human plasma, ion (formula + adduct): [C43H74NO8P-H] 1-): 275 Å²

CCCCCCCCCCCCCCCCCC(=O)OCC(COP(=O)(O)O)OC(=O)CCCCCCCCCCCCCCCCC (configuration not stated) [PA 18:0_18:0]
TIMS collisional cross section (sample type: Mouse Liver, ion (formula + adduct): [C39H77O8P+Cl] 1-): 273.4 Å²

CC/C=C\C/C=C\C/C=C\C/C=C\C/C=C\CCCC(=O)O[C@H](COC(=O)CCCCCCCCCCCCCCCCC)COP(=O)([O-])OCC[N+](C)(C)C [PC 18:0_20:5]
TIMS collisional cross section [1]: 299.5 Å²

CCCCC/C=C\C/C=C\CCCCCCCC(=O)OC[C@H](COP(=O)(O)OCCN)OC(=O)CCCCCCC/C=C\CCCCCC [PE 18:2_16:1]
TIMS collisional cross section (sample type: Human plasma, ion (formula + adduct): [C39H72NO8P-H] 1-): 264.3 Å²
TIMS collisional cross section (sample type: Mouse Liver, ion (formula + adduct): [C39H72NO8P-H] 1-): 264.3 Å²

CC/C=C\C/C=C\C/C=C\C/C=C\C/C=C\C/C=C\CCC(=O)O[C@H](COC(=O)CCCCCCCCCCCCCCC)COP(=O)([O-])OCC[N+](C)(C)C [PC 16:0@_22:6]
TIMS collisional cross section (sample type: Mouse Liver, ion (formula + adduct): [C46H80NO8P-CH3] 1-): 281.3 Å²

CC/C=C\C/C=C\C/C=C\C/C=C\C/C=C\C/C=C\CCC(=O)O[C@H](CO/C=C\CCCCCCCCCCCCCC)COP(=O)(O)OCCN [PE P- 16:0@_22:6]
TIMS collisional cross section (sample type: Human plasma, ion (formula + adduct): [C43H74NO7P-H] 1-): 274 Å²
TIMS collisional cross section (sample type: Mouse Liver, ion (formula + adduct): [C43H74NO7P-H] 1-): 274.6 Å²

CC/C=C\C/C=C\C/C=C\C/C=C\CCCCC(=O)OC[C@H](COP(=O)(O)OCCN)OC(=O)CCCCCCCCCCCCCCCCC [PE 18:4_18:0@]
TIMS collisional cross section (sample type: Human plasma, ion (formula + adduct): [C41H74NO8P+AcO] 1-): 282.4 Å²

CC/C=C\C/C=C\C/C=C\C/C=C\C/C=C\CCCC(=O)O[C@H](COC(=O)CCCCCCCCCCCCCCC)COP(=O)([O-])OCC[N+](C)(C)C [PC 16:0_20:5]
TIMS collisional cross section (sample type: Human plasma, ion (formula + adduct): [C44H78NO8P+HCOO] 1-): 292.7 Å²
TIMS collisional cross section (sample type: Mouse Liver, ion (formula + adduct): [C44H78NO8P-CH3] 1-): 275.6 Å²

CC/C=C\C/C=C\CC(O)/C=C/C=C\C/C=C\C/C=C\CCC(=O)O[C@H](COC(=O)CCCCCCCCCCCCCCCCC)COP(=O)(O)OCCN (some centres not stated) [Oxidized PE 18:0_22:6@]
TIMS collisional cross section (sample type: Human plasma, ion (formula + adduct): [C45H78NO9P-H] 1-): 287 Å²

CCCCC/C=C\C/C=C\CCCCCCCCCC(=O)OC[C@@H](O)COP(=O)([O-])OCC[N+](C)(C)C [LPC 20:2_0:0]
TIMS collisional cross section (sample type: Human plasma, ion (formula + adduct): [C28H54NO7P+HCOO] 1-): 246.6 Å²
TIMS collisional cross section (sample type: Mouse Liver, ion (formula + adduct): [C28H54NO7P+HCOO] 1-): 245.7 ± 0.42 Å²

CC/C=C\C/C=C\C/C=C\C/C=C\C/C=C\C/C=C\CCC(=O)O[C@H](CO/C=C\CCCCCCCCCCCCCCCC)COP(=O)(O)OCCN [PE P- 18:0@_22:6]
TIMS collisional cross section (sample type: Human plasma, ion (formula + adduct): [C45H78NO7P-CH3] 1-): 276.8 Å²

CCCCC/C=C\C/C=C\C/C=C\C/C=C\CCCC(=O)O[C@H](COC(=O)CCCCCCCCCCCCCCCC)COP(=O)([O-])OCC[N+](C)(C)C [PC 17:0_20:4]
TIMS collisional cross section (sample type: Mouse Liver, ion (formula + adduct): [C45H82NO8P+HCOO] 1-): 297.2 Å²

CC/C=C\C/C=C\C/C=C\C/C=C\C/C=C\C/C=C\CCC(=O)O[C@H](COCCCCCCCCCCCCCCCC)COP(=O)(O)OCCN [PE O- 16:0@_22:6]
TIMS collisional cross section (sample type: Human plasma, ion (formula + adduct): [C43H76NO7P-H] 1-): 274 Å²
TIMS collisional cross section (sample type: Mouse Liver, ion (formula + adduct): [C43H76NO7P-H] 1-): 273.4 Å²

CC/C=C\C/C=C\C/C=C\C/C=C\C/C=C\CCCC(=O)O[C@H](CO/C=C\CCCCCCCCCCCCCC)COP(=O)(O)OCCN [PE P- 16:0@_20:5]
TIMS collisional cross section (sample type: Human plasma, ion (formula + adduct): [C41H72NO7P+AcO] 1-): 283.1 Å²
TIMS collisional cross section (sample type: Human plasma, ion (formula + adduct): [C41H72NO7P-H] 1-): 268.9 Å²

CCCCC/C=C\CCCCCCCC(=O)OC[C@H](CO)OC(=O)CCCCCCC/C=C\CCCCCC [DG 15:1@_16:1_0:0]
TIMS collisional cross section (sample type: Human plasma, ion (formula + adduct): [C34H62O5-H] 1-): 245.3 Å²

CCCCCC/C=C\CCCCCCCCCCOC[C@@H](O)COP(=O)([O-])OCC[N+](C)(C)C [LPC O- 18:1_0:0]
TIMS collisional cross section (sample type: Human plasma, ion (formula + adduct): [C26H54NO6P+HCOO] 1-): 244 Å²

CCCCC/C=C\C/C=C\CCCCCCCC(=O)O[C@@H](CO)COC(=O)CCCCCCCCCCCCCC [DG 15:0@_18:2_0:0]
TIMS collisional cross section (sample type: Human plasma, ion (formula + adduct): [C36H66O5-H] 1-): 254.4 Å²

CC/C=C\C/C=C\C/C=C\C/C=C\C/C=C\C/C=C\CCC(=O)O[C@H](COC(=O)CCCCCCCCCCCCCC)COP(=O)([O-])OCC[N+](C)(C)C [PC 15:0@_22:6]
TIMS collisional cross section (sample type: Mouse Liver, ion (formula + adduct): [C45H78NO8P-H] 1-): 280.7 Å²

CCCCC/C=C\C/C=C\CCCCCCCC(=O)OC(COC(=O)CCCCCCCCCCCCCCCCC)COP(=O)(O)OCCN (configuration not stated) [PE 18:0@_18:2]
TIMS collisional cross section (sample type: Human plasma, ion (formula + adduct): [C41H78NO8P-H] 1-): 273.4 Å²

CC/C=C\C/C=C\C/C=C\C/C=C\C/C=C\CCCC(=O)OC[C@H](COP(=O)(O)OCCN)OC(=O)CCCCCCCCCCCCCCC [PE 20:5_16:0]
TIMS collisional cross section (sample type: Human plasma, ion (formula + adduct): [C41H72NO8P-H] 1-): 269.4 Å²
TIMS collisional cross section (sample type: Mouse Liver, ion (formula + adduct): [C41H72NO8P-H] 1-): 269.4 Å²

CC/C=C\C/C=C\C/C=C\CCCCCCCC(=O)O[C@H](COC(=O)CCCCCCCCCCCCC)COP(=O)([O-])OCC[N+](C)(C)C [PC 14:0_18:3]
TIMS collisional cross section (sample type: Mouse Liver, ion (formula + adduct): [C40H74NO8P+HCOO] 1-): 284 Å²

CCCCC/C=C\C/C=C\C/C=C\CCCCCCC(=O)O[C@H](COC(=O)CCCCCCC/C=C\C/C=C\CCCCC)COP(=O)([O-])OCC[N+](C)(C)C [PC 18:2_20:3]
TIMS collisional cross section [1]: 299.2 Å²

CC/C=C\C/C=C\C/C=C\C/C=C\C/C=C\C/C=C\CCC(=O)O[C@H](COC(=O)CCC/C=C\C/C=C\C/C=C\C/C=C\C/C=C\CC)COP(=O)([O-])OCC[N+](C)(C)C [PC 20:5_22:6]
TIMS collisional cross section (sample type: Mouse Liver, ion (formula + adduct): [C50H78NO8P+HCOO] 1-): 300.4 Å²

CC/C=C\C/C=C\C/C=C\C/C=C\C/C=C\C/C=C\CCC(=O)OC[C@@H](O)COP(=O)(O)OC1[C@H](O)[C@H](O)C(O)[C@H](O)[C@H]1O (some centres not stated) [LPI 22:6_0:0]
TIMS collisional cross section (sample type: Human plasma, ion (formula + adduct): [C31H49O12P-H] 1-): 243.8 Å²

CCCCC/C=C\C/C=C\C/C=C\C/C=C\C/C=C\CCC(=O)OC[C@@H](O)COP(=O)(O)OCCN [LPE 22:5_0:0]
TIMS collisional cross section (sample type: Human plasma, ion (formula + adduct): [C27H46NO7P-H] 1-): 222.18 ± 0.25 Å²
TIMS collisional cross section (sample type: Mouse Liver, ion (formula + adduct): [C27H46NO7P-H] 1-): 222.05 ± 0.35 Å²

CCCCCCCCCCCCCCCC(=O)OC[C@@H](O)COP(=O)([O-])OCC[N+](C)(C)C [LPC 16:0_0:0]
TIMS collisional cross section (sample type: Human plasma, ion (formula + adduct): [C24H50NO7P+Cl] 1-): 234.8 Å²
TIMS collisional cross section (sample type: Human plasma, ion (formula + adduct): [C24H50NO7P+HCOO] 1-): 238.02 ± 0.4 Å²
TIMS collisional cross section (sample type: Human plasma, ion (formula + adduct): [C24H50NO7P-CH3] 1-): 218.1 Å²
TIMS collisional cross section (sample type: Mouse Liver, ion (formula + adduct): [C24H50NO7P+HCOO] 1-): 241.2 ± 5.1 Å²
TIMS collisional cross section (sample type: Mouse Liver, ion (formula + adduct): [C24H50NO7P-CH3] 1-): 218.7 Å²

CCCC/C=C\CCCCCCCC(=O)OC[C@H](COP(=O)(O)OC[C@H](N)C(=O)O)OC(=O)CCCCCCCCCCCCCCC [PS 14:1@_16:0]
TIMS collisional cross section (sample type: Human plasma, ion (formula + adduct): [C36H68NO10P-H] 1-): 269 Å²
TIMS collisional cross section (sample type: Mouse Liver, ion (formula + adduct): [C36H68NO10P-H] 1-): 268.4 Å²

CC/C=C\C/C=C\C/C=C\C/C=C\C/C=C\C/C=C\CCC(=O)OC[C@H](COP(=O)(O)OCCN)OC(=O)CCCCCCC/C=C\CCCCCCCC [PE 22:6@_18:1]
TIMS collisional cross section (sample type: Human plasma, ion (formula + adduct): [C45H76NO8P-H] 1-): 278.4 Å²

CC/C=C\C/C=C\C/C=C\C/C=C\C/C=C\C/C=C\CCC(=O)O[C@H](COC(=O)CCCCCCC/C=C\CCCCCCCC)COP(=O)(O)OC1C(O)C(O)C(O)[C@@H](O)C1O (some centres not stated) [PI 18:1_22:6@]
TIMS collisional cross section (sample type: Mouse Liver, ion (formula + adduct): [C49H81O13P-H] 1-): 299.8 Å²
